BindingDB's records for patent US10343992 (Missions Therapeutics, 2019)

Target: T1, Ubiquitin carboxyl-terminal hydrolase 30 (Homo sapiens, UniProt Q70CQ3)
T1 sequence (Q70CQ3 whole entry): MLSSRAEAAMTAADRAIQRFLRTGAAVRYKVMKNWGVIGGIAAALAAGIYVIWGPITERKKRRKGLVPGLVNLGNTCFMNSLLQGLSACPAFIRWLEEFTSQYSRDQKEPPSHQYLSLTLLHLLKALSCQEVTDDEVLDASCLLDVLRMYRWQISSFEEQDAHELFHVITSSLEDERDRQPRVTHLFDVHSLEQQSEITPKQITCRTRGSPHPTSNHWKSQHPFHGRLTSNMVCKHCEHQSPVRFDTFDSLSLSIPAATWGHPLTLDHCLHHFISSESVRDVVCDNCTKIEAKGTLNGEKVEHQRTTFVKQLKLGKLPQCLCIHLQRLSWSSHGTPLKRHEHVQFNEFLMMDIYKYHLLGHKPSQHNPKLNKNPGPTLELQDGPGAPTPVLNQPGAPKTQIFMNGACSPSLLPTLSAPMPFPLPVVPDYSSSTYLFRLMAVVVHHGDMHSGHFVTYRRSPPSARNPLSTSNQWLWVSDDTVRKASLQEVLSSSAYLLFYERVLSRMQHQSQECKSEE
Experiment: Biochemical Fluorescence Intensity Assay
Method: A typical 8-point dilution series would be 100, 30, 10, 3, 1, 0.3, 0.1, 0.03 μM final. […] USP30 was diluted in reaction buffer (40 mM Tris, pH 7.5, 0.005% Tween 20, 0.5 mg/ml BSA, 5 mM beta-mercaptoethanol) to the equivalent of 0.001 μl/well and 10 μl of diluted USP30 was added to the compound. Enzyme and compound were incubated for 30 min at room temp. […] Reactions were read immediately after addition of substrate and following a 2 h incubation at room temperature.

Row | IC50 | SMILES
1 | in the range around 550 nM | CN(C(=O)CC1=NC2C=C(c3cnn(C)c3)N=CC2N1)C1CCN(C#N)C1 (configuration not stated) [US10343992, Example 263]
2 | in the range around 550 nM | Cn1ccc(-c2ccc(NC(=O)N3CC[C@@H]4CN(C#N)C[C@@H]43)c(F)c2)n1 [US10343992, Example 245]
